# Measured values published in PubChem BioAssay AID1918998 (Molecular Pharmacology Branch, DTP, NCI, 2023).
# Tested on: 521955-158-R2-J5-PDC complex spheroid growth
# Test: Anticancer human tumor 521955-158-R2-J5-PDC patient-derived pancreatic carcinoma cell line growth inhibition [AhR]
# Conditions: for IC50: curve of first compound; for viability, T/C: stronger effect = lower value
# In short: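 Spheroids combined tumor cells with HUVEC endothelial cells and human MSCs as stroma. AhR antagonists were paired with standard or investigational drugs, each dosed in half-log steps down from near clinical Cmax, or from 10 microM where Cmax was unknown.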
# [1] = second compound 0.1 µM, first compound 0.000949 µM
# [2] = second compound 0.1 µM, first compound 0.003 µM
# [3] = second compound 0.1 µM, first compound 0.00949 µM
# [4] = second compound 0.1 µM, first compound 0.03 µM
# [5] = second compound 0.1 µM, first compound 0.0949 µM
# [6] = second compound 0.1 µM, first compound 0.3 µM
# [7] = second compound 0.316 µM, first compound 0.000949 µM
# [8] = second compound 0.316 µM, first compound 0.003 µM
# [9] = second compound 0.316 µM, first compound 0.00949 µM
# [10] = second compound 0.316 µM, first compound 0.03 µM
# [11] = second compound 0.316 µM, first compound 0.0949 µM
# [12] = second compound 0.316 µM, first compound 0.3 µM
# [13] = second compound 1 µM, first compound 0.000949 µM
# [14] = second compound 1 µM, first compound 0.003 µM
# [15] = second compound 1 µM, first compound 0.00949 µM
# [16] = second compound 1 µM, first compound 0.03 µM
# [17] = second compound 1 µM, first compound 0.0949 µM
# [18] = second compound 1 µM, first compound 0.3 µM
# [19] = second compound 3.16 µM, first compound 0.000949 µM
# [20] = second compound 3.16 µM, first compound 0.003 µM
# [21] = second compound 3.16 µM, first compound 0.00949 µM
# [22] = second compound 3.16 µM, first compound 0.03 µM
# [23] = second compound 3.16 µM, first compound 0.0949 µM
# [24] = second compound 3.16 µM, first compound 0.3 µM
# [25] = second compound 10 µM, first compound 0.000949 µM
# [26] = second compound 10 µM, first compound 0.003 µM
# [27] = second compound 10 µM, first compound 0.00949 µM
# [28] = second compound 10 µM, first compound 0.03 µM
# [29] = second compound 10 µM, first compound 0.0949 µM
# [30] = second compound 10 µM, first compound 0.3 µM
# 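Throughout, for viability, T/C: spheroids mix tumor cells with HUVEC endothelium and human MSC stroma; luminescence taken as viability surrogate after a week of drug exposure.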
compound,measurement,setting,value
CCc1c2c(nc3ccc(O)cc13)-c1cc3c(c(=O)n1C2)COC(=O)[C@]3(O)CC + CC(CO)NC(=O)c1cc(-c2ccc(Cl)cc2)nn(-c2cnn(C)c2)c1=O,IC50,second compound 0.1 µM,2.22 nM
same,IC50,second compound 0.316 µM,< 0.949 nM
same,IC50,second compound 1 µM,1.21 nM
same,IC50,second compound 3.16 µM,< 0.949 nM
same,IC50,second compound 10 µM,< 0.949 nM
same,"viability, T/C",[1],57.4%
same,"viability, T/C",[2],47.5%
same,"viability, T/C",[3],15.7%
same,"viability, T/C",[4],9.8%
same,"viability, T/C",[5],8.28%
same,"viability, T/C",[6],5.09%
same,"viability, T/C",[7],49.1%
same,"viability, T/C",[8],36.5%
same,"viability, T/C",[9],13.5%
same,"viability, T/C",[10],9.73%
same,"viability, T/C",[11],8.11%
same,"viability, T/C",[12],5.79%
same,"viability, T/C",[13],55.3%
same,"viability, T/C",[14],30%
same,"viability, T/C",[15],16.4%
same,"viability, T/C",[16],7.85%
same,"viability, T/C",[17],9.01%
same,"viability, T/C",[18],4.72%
same,"viability, T/C",[19],35.5%
same,"viability, T/C",[20],29.3%
same,"viability, T/C",[21],16.7%
same,"viability, T/C",[22],12.7%
same,"viability, T/C",[23],9.72%
same,"viability, T/C",[24],9.82%
same,"viability, T/C",[25],27.3%
same,"viability, T/C",[26],23.6%
same,"viability, T/C",[27],14.9%
same,"viability, T/C",[28],8.31%
same,"viability, T/C",[29],7.42%
same,"viability, T/C",[30],6.21%
Nc1ncn(C2CC(O)C(CO)S2)c(=O)n1 (stereo not given) + CC(CO)NC(=O)c1cc(-c2ccc(Cl)cc2)nn(-c2cnn(C)c2)c1=O,IC50,second compound 0.1 µM,> 300 nM
same,IC50,second compound 0.316 µM,> 300 nM
same,IC50,second compound 1 µM,> 300 nM
same,IC50,second compound 3.16 µM,> 300 nM
same,IC50,second compound 10 µM,> 300 nM
same,"viability, T/C",[1],79.4%
same,"viability, T/C",[2],89.4%
same,"viability, T/C",[3],97.9%
same,"viability, T/C",[4],89.9%
same,"viability, T/C",[5],72.6%
same,"viability, T/C",[6],71.2%
same,"viability, T/C",[7],115%
same,"viability, T/C",[8],107%
same,"viability, T/C",[9],107%
same,"viability, T/C",[10],116%
same,"viability, T/C",[11],94.1%
same,"viability, T/C",[12],84.4%
same,"viability, T/C",[13],107%
same,"viability, T/C",[14],107%
same,"viability, T/C",[15],106%
same,"viability, T/C",[16],108%
same,"viability, T/C",[17],73%
same,"viability, T/C",[18],99.3%
same,"viability, T/C",[19],102%
same,"viability, T/C",[20],116%
same,"viability, T/C",[21],141%
same,"viability, T/C",[22],111%
same,"viability, T/C",[23],86.1%
same,"viability, T/C",[24],73.1%
same,"viability, T/C",[25],73.8%
same,"viability, T/C",[26],81.3%
same,"viability, T/C",[27],102%
same,"viability, T/C",[28],76.9%
same,"viability, T/C",[29],88.3%
same,"viability, T/C",[30],81.5%
